Experimental data as given in patent US10508077B2 (FORMA Therapeutics, Inc., priority 2015, dated 2019).

Each compound was assayed against T1, Full length human recombinant HDAC8 protein (Homo sapiens, UniProt Q9BY41) (assay: In vitro histone deacetylase assay: enzymatic HDAC8 assay, electrophoretic mobility shift). Settings: substrate RHKK(Ac)-NH2, 1 nM enzyme, compounds listed under IC50 range headings.
T1 construct: Full length human recombinant HDAC8 protein was expressed in baculoviral system; made in house
T1 sequence (Q9BY41 1-377): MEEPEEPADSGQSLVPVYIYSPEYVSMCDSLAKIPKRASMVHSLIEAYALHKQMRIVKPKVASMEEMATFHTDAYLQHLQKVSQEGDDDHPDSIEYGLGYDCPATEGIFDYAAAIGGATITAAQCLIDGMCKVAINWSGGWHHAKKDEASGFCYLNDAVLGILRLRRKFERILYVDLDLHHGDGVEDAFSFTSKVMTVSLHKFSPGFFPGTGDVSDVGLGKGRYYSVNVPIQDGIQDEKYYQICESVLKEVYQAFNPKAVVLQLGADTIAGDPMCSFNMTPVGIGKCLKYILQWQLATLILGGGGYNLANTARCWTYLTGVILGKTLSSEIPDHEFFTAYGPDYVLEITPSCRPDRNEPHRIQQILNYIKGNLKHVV
Type: biochemical
Procedure: The enzymatic HDAC8 assay was performed using electrophoretic mobility shift assay. Full length human recombinant HDAC8 protein was expressed in baculoviral system and purified by affinity chromatography. The enzymatic reactions were assembled in 384 well plates in a total volume of 25 μL in a reaction buffer composing: 100 mM HEPES, pH7.5, 25 mM KC, 0.1% bovine serum albumin, 0.01% Triton X-100, 1% DMSO (from compounds) 2 μM of the fluorescently labeled peptide substrate and enzyme. The enzyme was added at a final concentration of 1 nM. The peptide substrate RHKK(Ac)-NH2 was used. The compounds were tested at 12 concentrations spaced by 3× dilution intervals. Negative control samples (0%-inhibition in the absence of inhibitor) and positive control samples (100%-inhibition) were assembled in replicates of four in each assay plate. The reactions were incubated at 25° C. and quenched by the addition of 45 μL of termination buffer (100 mM HEPES, pH 7.5, 0.01% Triton X-100, 0.05% SDS).
The terminated assay plates were analyzed on LabChip® 3000 microfluidic electrophoresis instrument (Perkin Elmer/Caliper Life Sciences). The fluorescence intensity of the electrophoretically separated de-acetylated product and substrate peptide was measured. Activity in each sample was determined as the product to sum ratio (PSR): P/(S+P), where P is the peak height of the product peptide and S is the peak height of the substrate peptide. Percent inhibition (Pinh) is determined using the following equation: Pinh=(PSR0%−PSRinh)/(PSR0%−PSR100%)*100, where PSRinh is the product sum ratio in the presence of inhibitor, PSR0% is the average product sum ration in the absence of inhibitor and PSR 100% is the average product sum ratio in 100%-inhibition control samples. The IC50 values of inhibitors were determined by fitting the %-inhibition curves with 4 parameter dose-response model using XLfit 4 software. Ranges of IC50 values for compounds of the invention are disclosed in Table 26.

Question: `O=C(/C=C/c1ccccc1N1CCN(Cc2ccccc2F)CC1)NO` [Example I-164, (E)-3-(2-(4-(2-fluorobenzyl)piperazin-1-yl)phenyl)-N-hydroxyacrylamide] was tested. Which IC50 did it give?
Answer: < 1 µM

Question: How did the IC50 turn out when `COc1cncc(CNc2ccccc2/C=C/C(=O)NO)c1` [Example I-90] was run?
Answer: < 1 µM

Question: `O=C(/C=C/c1ccccc1N1CCN(C(=O)C2CCC(F)(F)CC2)CC1)NO` [Example I-23] was tested. Which IC50 did it give?
Answer: 1 to 10 µM

Question: For `O=C(/C=C/c1ccccc1N1CCC(NC(=O)c2ccc3cccnc3n2)CC1)NO` [Example I-11, (E)-N-(1-(2-(3-(hydroxyamino)-3-oxoprop-1-en-1-yl)phenyl)piperidin-4-yl)-1,8-naphthyridine-2-carboxamide], which IC50 is on record?
Answer: 1 to 10 µM

Question: How did the IC50 turn out when `O=C(/C=C/c1ccccc1C(=O)N1CCN(c2ccncc2)CC1)NO` [II-20] was run?
Answer: < 1 µM

Question: Which IC50 does the source give for `O=C(/C=C/c1ccccc1N1CCC(NS(=O)(=O)c2ccc(OC(F)F)cc2)CC1)NO` [Example I-234, (E)-3-(2-(4-((4-(difluoromethoxy)phenyl)sulfonamido)piperidin-1-yl)phenyl)-N-hydroxyacrylamide] here?
Answer: < 1 µM

Question: For `O=C(/C=C/c1ccccc1NC(=O)C1(O)CCC1)NO` [Example I-6, (E)-1-hydroxy-N-(2-(3-(hydroxyamino)-3-oxoprop-1-en-1-yl)phenyl)cycobutane-1-carboxamide], which IC50 is on record?
Answer: 1 to 10 µM

Question: How did the IC50 turn out when `O=C(/C=C/c1ccccc1N1CCN(S(=O)(=O)c2ccc(OC(F)F)cc2)CC1)NO` [Example I-30, (E)-3-(2-(4-((4-(difluoromethoxy)phenyl)sulfonyl)piperazin-1-yl)phenyl)-N-hydroxyacrylamide] was run?
Answer: 1 to 10 µM

Question: Which IC50 does the source give for `COc1ccc(S(=O)(=O)N2CCN(c3ccccc3/C=C/C(=O)NO)CC2)cc1OC` [Example I-256, (E)-3-(2-(4-((3,4-dimethoxyphenyl)sulfonyl)piperazin-1-yl)phenyl)-N-hydroxyacrylamide] here?
Answer: < 1 µM

Question: Which IC50 does the source give for `O=C(/C=C/c1ccccc1N1CCC(NS(=O)(=O)C2CCCC2)CC1)NO` [Example I-27, (E)-3-(2-(4-(cyclopentanesulfonamido)piperidin-1-yl)phenyl)-N-hydroxyacrylamide] here?
Answer: 1 to 10 µM

Question: Which IC50 does the source give for `O=C(/C=C/c1ccccc1NCC1CCCCC1)NO` [Example I-55, (E)-3-(2-((cyclohexylmethyl)amino)phenyl)-N-hydroxyacrylamide] here?
Answer: < 1 µM

Question: `Cn1ccc(S(=O)(=O)N2CCN(c3ccccc3/C=C/C(=O)NO)CC2)n1` [Example I-244, (E)-N-hydroxy-3-(2-(4-((1-methyl-1H-pyrazol-3-yl)sulfonyl)piperazin-1-yl)phenyl)acrylamide] was tested. Which IC50 did it give?
Answer: < 1 µM

Question: With `CN(Cc1cccc(C(F)(F)F)c1)C(=O)c1ccccc1/C=C/C(=O)NO` [II-18] as the compound, how does the IC50 read?
Answer: < 1 µM

Question: For `O=C(/C=C/c1ccccc1C(=O)NCCc1ccc(F)cc1)NO` [II-6, (E)-N-(4-fluorophenethyl)-2-(3-(hydroxyamino)-3-oxoprop-1-en-1-yl)benzamide], which IC50 is on record?
Answer: 1 to 10 µM

Question: For `O=C(/C=C/c1ccccc1NC(=O)c1ccccc1CCc1ccccc1)NO` [Example I-267, (E)-N-(2-(3-(hydroxyamino)-3-oxoprop-1-en-1-yl)phenyl)-2-phenethylbenzamide], which IC50 is on record?
Answer: < 1 µM

Question: For `O=C(/C=C/c1ccccc1N1CCN(S(=O)(=O)Cc2cccc(F)c2)CC1)NO` [Example I-257, (E)-3-(2-(4-((3-fluorobenzyl)sulfonyl)piperazin-1-yl)phenyl)-N-hydroxyacrylamide], which IC50 is on record?
Answer: < 1 µM

Question: How did the IC50 turn out when `O=C(/C=C/c1ccccc1NC(=O)c1nccn1-c1ccccc1C(F)(F)F)NO` [Example I-38, (E)-N-(2-(3-(hydroxyamino)-3-oxoprop-1-en-1-yl)phenyl)-1-(2-(trifluoromethyl)phenyl)-1H-imidazole-2-carboxamide] was run?
Answer: 1 to 10 µM

Question: For `Cc1oc(-c2ccc(Cl)cc2)cc1C(=O)NC1CCN(c2ccccc2/C=C/C(=O)NO)CC1` [Example I-15], which IC50 is on record?
Answer: 1 to 10 µM

Question: `Cc1nc(-c2ccccc2)sc1C(=O)Nc1ccccc1/C=C/C(=O)NO` [Example I-277, (E)-N-(2-(3-(hydroxyamino)-3-oxoprop-1-en-1-yl)phenyl)-4-methyl-2-phenylthiazole-5-carboxamide] was tested. Which IC50 did it give?
Answer: < 1 µM

Question: `CC1(CCC(=O)NC2CCN(c3ccccc3/C=C/C(=O)NO)CC2)CC1` [Example I-143, (E)-N-hydroxy-3-(2-(4-(3-(1-methylcyclopropyl)propan-amido)piperidin-1-yl)phenyl)acrylamide] was tested. Which IC50 did it give?
Answer: < 1 µM

Question: How did the IC50 turn out when `O=C(/C=C/c1ccccc1N1CCN(S(=O)(=O)C2CC2)CC1)NO` [Example I-260, (E)-3-(2-(4-(cyclopropylsulfonyl)piperazin-1-yl)phenyl)-N-hydroxyacrylamide] was run?
Answer: < 1 µM

Question: Which IC50 does the source give for `Cc1nc(CC(=O)N2CCN(c3ccccc3/C=C/C(=O)NO)CC2)c(C)s1` [Example I-211] here?
Answer: < 1 µM

Question: With `O=C(/C=C/c1ccccc1NC(=O)c1ccc(-n2cccc2)nc1)NO` [Example I-273, (E)-N-(2-(3-(hydroxyamino)-3-oxoprop-1-en-1-yl)phenyl)-6-(1H-pyrrol-1-yl)nicotinamide] as the compound, how does the IC50 read?
Answer: < 1 µM

Question: `Cc1nnc(C)n1C1CCN(C(=O)c2ccccc2/C=C/C(=O)NO)CC1` [II-26, (E)-3-(2-(4-(3,5-dimethyl-4H-1,2,4-triazol-4-yl)piperidine-1-carbonyl)phenyl)-N-hydroxyacrylamide] was tested. Which IC50 did it give?
Answer: < 1 µM

Question: For `CC(C)(C)OC(=O)N1CCC2(CC1)CCN(c1ccccc1/C=C/C(=O)NO)CC2` [Example I-50, tert-butyl-(E)-9-(2-(3-(hydroxyamino)-3-oxoprop-1-en-1-yl)phenyl)-3,9-diazaspiro[5.5]undecane-3-carboxylate], which IC50 is on record?
Answer: < 1 µM

Question: Which IC50 does the source give for `O=C(/C=C/c1ccccc1N1CCC(NC(=O)C2CCCCC2)CC1)NO` [Example I-126, (E)-N-(1-(2-(3-(hydroxyamino)-3-oxoprop-1-en-1-yl)phenyl)piperidin-4-yl)cyclohexanecarboxamide] here?
Answer: < 1 µM

Question: For `Cc1csc(CN2CCN(c3ccccc3/C=C/C(=O)NO)CC2)n1` [Example I-185, (E)-N-hydroxy-3-(2-(4-((4-methylthiazol-2-yl)methyl)piperazin-1-yl)phenyl)acrylamide], which IC50 is on record?
Answer: < 1 µM

Question: Which IC50 does the source give for `O=C(/C=C/c1ccccc1N1CCC(NS(=O)(=O)C2CC2)CC1)NO` [Example I-241] here?
Answer: < 1 µM

Question: `COc1ccc(C(=O)N2CCN(c3ccccc3/C=C/C(=O)NO)CC2)cc1F` [Example I-213] was tested. Which IC50 did it give?
Answer: < 1 µM

Question: Which IC50 does the source give for `COc1ccccc1S(=O)(=O)NC1CCN(c2ccccc2/C=C/C(=O)NO)CC1` [Example I-238, (E)-N-hydroxy-3-(2-(4-((2-methoxyphenyl)sulfon-amido)piperidin-1-yl)phenyl)acrylamide] here?
Answer: < 1 µM

Question: Which IC50 does the source give for `O=C(/C=C/c1ccccc1N1CCC(NS(=O)(=O)Cc2cccc(F)c2)CC1)NO` [Example I-235, (E)-3-(2-(4-(((3-fluorophenyl)methyl)sul-fonamido)piperidin-1-yl)phenyl)-N-hydroxyacrylamide] here?
Answer: < 1 µM

Question: For `CC(=O)Nc1cccc(C(=O)Nc2ccccc2/C=C/C(=O)NO)c1` [Example I-42, (E)-3-acetamido-N-(2-(3-(hydroxyamino)-3-oxoprop-1-en-1-yl)phenyl)benazmide], which IC50 is on record?
Answer: < 1 µM

Question: `Cn1cnc(S(=O)(=O)N2CCN(c3ccccc3/C=C/C(=O)NO)CC2)c1` [Example I-258, (E)-N-hydroxy-3-(2-(4-((1-methyl-1H-imidazol-4-yl)sulfonyl)piperazin-1-yl)phenyl)acrylamide] was tested. Which IC50 did it give?
Answer: < 1 µM

Question: How did the IC50 turn out when `CCCc1nc(-c2ccccc2)sc1C(=O)Nc1ccccc1/C=C/C(=O)NO` [Example I-276, (E)-N-(2-(3-(hydroxyamino)-3-oxoprop-1-en-1-yl)phenyl)-2-phenyl-4-propylthiazole-5-carboxamide] was run?
Answer: < 1 µM

Question: How did the IC50 turn out when `NC(=O)C1CCC2(CC1)CCN(c1ccccc1/C=C/C(=O)NO)CC2` [Example I-108, (E)-3-(2-(3-(hydroxyamino)-3-oxoprop-1-en-1-yl)phenyl)-3-azaspiro[5.5]undecane-9-carboxamide] was run?
Answer: < 1 µM

Question: With `O=C(/C=C/c1ccccc1N1CCC(NS(=O)(=O)Cc2ccc(Cl)cc2F)CC1)NO` [Example I-239, (E)-3-(2-(4-(((4-chloro-2-fluorophenyl)methyl)sul-fonamido)piperidin-1-yl)phenyl)-N-hydroxyacrylamide] as the compound, how does the IC50 read?
Answer: < 1 µM

Question: With `O=C(/C=C/c1ccccc1N1Cc2ccccc2C1=O)NO` [Example I-308, (E)-N-hydroxy-3-(2-(1-oxoisoindolin-2-yl)phenyl)acrylamide] as the compound, how does the IC50 read?
Answer: < 1 µM
